Experimental data published in US6605628B1, “Method of using 5-(arysulfonyl)-, 5-(arylsulfanyl)-and 5-(arylsulfanyl)thiazolidine-2,4-diones for inhibition of farnesyl-protein transferase” (Wyeth Holdings Corporation, priority 2001, dated 2003).

How the values were obtained:
FPTase [1] = target: T1, FPTase (Homo sapiens, UniProt P49354+P49356); test: in vitro FTase Inhibition Assay, K-Ras used as substrate for farnesylation; type: biochemical; settings: Table I
FPTase [2] = target: T1, FPTase; test: in vitro FTase Inhibition Assay, H-Ras used as substrate for farnesylation; type: biochemical; settings: Table I, read-out: IC50 H-Ras*

IC50 (FPTase [1]) [nM] | IC50 (FPTase [2]) [nM] | melting point [°C] | SMILES
3800 | 150 | 174 to 178 | COc1ccc(S(=O)(=O)C2(CCCC#Cc3ccc(C#N)cc3)SC(=O)NC2=O)cc1 (stereo not drawn) [Example 158, 4-(5-[5-(4-Methoxybenzenesulfonyl)-2,4-dioxo-thiazolidin-5-yl]pent-1-ynyl}benzonitrile]
> 10000 | 650 | 190 to 193 | Cc1ccc(S(=O)(=O)C2(CCCC#Cc3ccc(S(C)(=O)=O)cc3)SC(=O)NC2=O)cc1 (stereo not drawn) [Example 159, 5-[5-(4-Methanesulfonylphenyl)-pent-4-ynyl]-5-(toluene-4-sulfonyl)-thiazolidine-2,4-dione]
4000 | 1210 | 194 to 195 | O=C1NC(=O)C(CCCC#Cc2ccc(-n3cccc3)cc2)(S(=O)(=O)c2ccc(I)cc2)S1 (stereo not drawn) [Example 162, 5-(4-Iodo-benzenesulfonyl)-5-[5-(4-pyrrol-1-yl-phenyl)pent-4-ynyl]-thiazolidine-2,4-dione]
> 10000 | 150 | 133 to 135 | COc1cccc(S(=O)(=O)C2(CCCC#Cc3cccs3)SC(=O)NC2=O)c1 (stereo not drawn) [Example 164, 5-(3-Methoxybenzenesulfonyl)-5-(5-thiophen-2-yl-pent-4-ynyl)-thiazolidine-2,4-dione]
5300 | 150 | 60 to 66 | COc1ccc(S(=O)(=O)C2(CCCC#Cc3cccs3)SC(=O)NC2=O)cc1 (stereo not drawn) [Example 166, 5-(4-Methoxybenzenesulfonyl)-5-(5-thiophen-2-yl-pent-4-ynyl)-thiazolidine-2,4-dione]
1800 | 100 | 179 to 180 | Cc1ccc(S(=O)(=O)C2(CC#Cc3ccc(-c4ccccc4)cc3)SC(=O)NC2=O)cc1 (stereo not drawn) [Example 169, 5-(3-Biphenyl-4-yl-prop-2-ynyl)-5-(toluene-4-sulfonyl)-thiazolidine-2,4-dione]
4700 | 380 | 64 to 66 | Cc1ccc(S(=O)(=O)C2(CC#Cc3ccc(Oc4ccccc4)cc3)SC(=O)NC2=O)cc1 (stereo not drawn) [Example 170, 5-[3-(4-Phenoxyphenyl)prop-2-ynyl]-5-(toluene-4-sulfonyl)-thiazolidine-2,4-dione]
